For data set [1], the system named is Plasmodium falciparum. In words: Antiplasmodial activity against chloroquine-sensitive Plasmodium falciparum D10. The data set is classed as functional, organism-based.
Data set [2] has as its system Plasmodium falciparum. In words: Antiplasmodial activity against chloroquine-resistant Plasmodium falciparum Dd2. The data set is classed as functional, organism-based.
The next data set relates to CHO. In words: Cytotoxicity against CHO cells by MTT assay. Particulars: Cricetulus griseus. The data set is classed as cell-based.
The test system of data set [3] is Plasmodium falciparum. The data set can be described thus: Resistance index, ratio of IC50 for chloroquine-resistant Plasmodium falciparum Dd2 to IC50 for chloroquine-sensitive Plasmodium falciparum D10. The data set is classed as functional.
A short description of data set [4]: Selectivity index, ratio of IC50 for CHO cells to IC50 of chloroquine-sensitive Plasmodium falciparum D10. The format is toxicity, cell-based. Particulars: hamster, read-out: Ratio IC50.

From ChEMBL document CHEMBL1287698, “Artemisinin-quinoline hybrid-dimers: synthesis and in vitro antiplasmodial activity” (Bioorg Med Chem Lett, 2010) come the findings set out here.

Broadly, the IC50 is the concentration that inhibits the measured activity by half. A higher IC50 goes with weaker potency in that assay. Consider `C[C@H]1[C@@H](OCCN(CCCNc2ccnc3cc(Cl)ccc23)CCO[C@H]2O[C@@H]3O[C@]4(C)CC[C@H]5[C@H](C)CC[C@@H]([C@H]2C)[C@@]35OO4)O[C@@H]2O[C@]3(C)CC[C@H]4[C@H](C)CC[C@@H]1[C@@]24OO3`, for which the IC50 in the data set with Plasmodium falciparum [1] is 5.31 nM; in the data set on Plasmodium falciparum [2] it was 28.4 nM; with CHO it was 0.68 nM. Moreover, in the data set with Plasmodium falciparum [3], the “Ratio IC50” value came to 5. Besides, the selectivity ratio in data set [4] was 128.
On to `C[C@H]1[C@@H](O)O[C@@H]2O[C@@]3(C)CC[C@H]4[C@H](C)CC[C@@H]1[C@@]24OO3` [ARTENIMOL], for which the IC50 came out at 5.11 nM in the data set with Plasmodium falciparum [1] and 2.09 nM in the data set with Plasmodium falciparum [2].
In the case of `C[C@H]1[C@@H](OCCN(CCNc2ccnc3cc(Cl)ccc23)CCO[C@H]2O[C@@H]3O[C@]4(C)CC[C@H]5[C@H](C)CC[C@@H]([C@H]2C)[C@@]35OO4)O[C@@H]2O[C@]3(C)CC[C@H]4[C@H](C)CC[C@@H]1[C@@]24OO3`, the results for the IC50 in the data set on Plasmodium falciparum [1], in the data set on Plasmodium falciparum [2] and with CHO were 7.37 nM, 46.1 nM and 10 nM, respectively. In addition, the “Ratio IC50” value with Plasmodium falciparum [3] is on record as 6. For the same molecule, the selectivity ratio in data set [4] was 1360.
The like results for `C[C@H]1[C@@H](O[N+]2(CCO[C@H]3O[C@H]4O[C@]5(C)CC[C@H]6[C@H](C)CC[C@@H]([C@H]3C)[C@@]46OO5)CCN(CCNc3ccnc4cc(Cl)ccc34)CC2)O[C@@H]2O[C@]3(C)CC[C@H]4[C@H](C)CC[C@@H]1[C@@]24OO3.[Br-]` were, in that order, 19.6 nM, 55.7 nM, 74.8 nM, 3 and 3810.
As to `CC[C@H]1CN2CCc3cc(OC)c(OC)cc3[C@@H]2C[C@@H]1C[C@H]1NCCc2cc(OC)c(OC)cc21` [EMETINE], in the data set with Plasmodium falciparum [3], the “Ratio IC50” value came out at 0.4.
With `C[C@H]1[C@@H](OCCN(CCCCNc2ccnc3cc(Cl)ccc23)CCO[C@H]2O[C@@H]3O[C@]4(C)CC[C@H]5[C@H](C)CC[C@@H]([C@H]2C)[C@@]35OO4)O[C@@H]2O[C@]3(C)CC[C@H]4[C@H](C)CC[C@@H]1[C@@]24OO3`, the results for the IC50 in the data set on Plasmodium falciparum [1], in the data set with Plasmodium falciparum [2] and in the data set with CHO were 89 nM, 205 nM and 5.43 nM, respectively. In addition, the “Ratio IC50” value with Plasmodium falciparum [3] stood at 2. The selectivity ratio in data set [4] came to 61.
